# Entries after “also recorded” stand apart in the source; their conditions may differ.
# Assays:
# [1] = system: P. falciparum ART-sensitive strain F32-TEM; assay: Standard in vitro chemo-sensitivity assay, F32-TEM; format: cell-based; conditions: Plasmodium falciparum, F32, 48 h, read-out: Mean ± SEM EC50 values F32-TEM
# Method: The Plasmodium falciparum ART-resistant strain F32-ART5 and its tween ART-sensitive strain F32-TEM [33, 41] were cultivated at 37 °C with 5% CO2 in human red blood cells (EFS, French Blood Bank) diluted to 2% hematocrit in RPMI-1640 medium (Biowest, Nuaillé, France) supplemented with 5% human serum (EFS, French Blood Bank), as previously reported.
# The chemosensitivity assay was carried out in 96-well culture plates on synchronized ring-stage parasites at 1% parasitemia obtained after D-sorbitol treatment. The antiplasmodial activities were evaluated using the SYBR Green I method. Parasites were exposed for 48 h to a range of concentrations of the different tested compounds. Each drug concentration was tested in triplicates. Parasite pellets were then washed in 1× PBS prior to lysing red blood cells at −20 °C overnight. Then, the plates were thawed and 100 µL of each well were transferred into a black 96-well plate. Next, 100 µL per well of SYBR Green I (Thermo Fisher) diluted at a final concentration of 2× in lysis buffer (20 mM Tris base pH 7.5, 5 mM EDTA, 0.008% w/v saponin, 0.08% w/v Triton X-100) were added and left to incubate for 1 h at room temperature prior to reading the plates on BioTek FLx800 Microplate Fluorescence Reader (λexcitation = 485 nm, λemission = 528 nm). Relative EC50 values were determined using GraphPad Prism software.
# [2] = In vitro cytotoxicity evaluation HepG2 (MTT); format: cell-based, human; conditions: human, CC50 HepG2 (µM) ± SD
# Method: For all molecules, the selectivity index was calculated as following SI = CC50/EC50.
# Triplicate assays were performed for each sample. Each plate-well was then microscopically examined for possible precipitate formation before the medium was aspirated from the wells. Next, 100 µL of MTT (3-(4,5-dimethyl-2-thiazolyl)-2,5-diphenyl -2H-tetrazolium bromide) solution (0.5 mg/mL in medium without FBS) was added to each well. […] After this time, the MTT solution was removed and DMSO (100 μL) was added to dissolve the resulting blue formazan crystals. Plates were shaken vigorously (700 rpm) for 10 min. The absorbance was measured at 570 nm with 630 nm as reference wavelength using a BIO-TEK ELx808 Absorbance Microplate Reader (LabX, Midland, ON, Canada). DMSO was used as blank and doxorubicin (purchased from Sigma Aldrich) as positive control. Cell viability was calculated as a percentage of control (cells incubated without compound). […] CC50 values to represent the mean value calculated from three independent experiments.
# [3] = system: HepG2 cell line; assay: In vitro alkaline comet assay; format: cell-based, human
# Method: The human hepatocarcinoma cell line HepG2 was obtained from the American Type Culture Collection (ATCC, ref. HB-8065). Cells were cultured in Eagle’s minimum essential medium (EMEM, ref. ATCC®® 30-2003TM) and supplemented with 10% heat-inactivated foetal bovine serum, 100 U/mL penicillin, and 0.1 mg/mL streptomycin (all from Gibco). Cells were maintained at 37 °C in a humidified atmosphere with 5% CO2 and used in passage number 11 to 15. Two concentrations of the compound 3i (3.2 and 16 µM) were tested at 2 different times of incubation (2 and 72 h). Briefly, HepG2 cells were seeded at 1.13 × 10^5 cells/mL in 6-well plates (3 mL of cell suspension per well) and incubated at 37 °C in a humidified atmosphere with 5% CO2. After 24 and 94 h of incubation, cells were treated with different concentrations of the compound or the vehicle (0.5% dimethylsulfoxide, DMSO) for 72 and 2 h, respectively. Additionally, in the 2 h treatment plate, cells in an additional well were treated with 1 mM MMS as positive control for the comet assay. After treatment, medium was removed from the wells and cells were washed with phosphate buffered saline (PBS). Finally, cells were trypsinized and trypsin was neutralized with fresh medium. From this point, cells were kept ice-cold to avoid DNA repair.
# The standard alkaline comet assay was employed for the detection of DNA strand breaks (SBs) and alkali-labile sites (ALS) in cells treated with molecule 3i. Trypsinized HepG2 cells were centrifuged at 125 × g for 5 min at 4 °C and resuspended in cold PBS at 1 x 10^6 cells/mL. For the preparation of the agarose gels, 30 µL of cell suspension were mixed with 140 µL of 1% low melting point agarose in PBS at 37 °C and 2 aliquots of 70 µL of cell/agarose mixture were placed on agarose-precoated microscope slides. Each droplet was covered with a 20 × 20 mm coverslip and, after 2–3 min on a cold metal plate, the coverslips were removed. Then, slides were immersed in lysis solution (2.5 M NaCl, 0.1 M Na2EDTA, 0.01 M Tris base, pH 10, and 1% Triton X-100) at 4 °C for 1 h. After lysis, slides were transferred to the electrophoresis tank and incubated for 40 min at 4 °C in the electrophoresis solution (0.3 M NaOH, 1 mM Na2EDTA, pH > 13) to allow DNA unwinding. After that, electrophoresis was carried out at 1 V/cm for 20 min (4 °C). Then, gels were neutralized and washed by immersing the slides in PBS for 10 min and distilled water for another 10 min (both at 4 °C). Gels were then air-dried at room temperature. Comets were stained by adding 30 µL of […] of 4,6- diamidino-2-phenylindole (DAPI) on top of each gel and placing 22 × 22 mm coverslips on top. Slides were incubated with DAPI at room temperature for 30 min before the analysis. The semi-automated image analysis system Comet Assay IV (Instem, Stone, UK) was used to evaluate 50 comets per gel (i.e., 100 comets/condition). The percentage of DNA in tail was the descriptor used for each comet.
# The median percentage of DNA in tail for 50 comets was calculated for each of the duplicate gels in each experiment, and the mean of the two medians were then calculated. The mean percentage of DNA in tail of 3 independent experiments and the standard deviation (SD) were calculated.
compound,measurement,setting,value
"O=[N+]([O-])c1ccc(Oc2nc3ccccc3nc2C(Cl)(Cl)Cl)cc1 [3i, 2-(4-Nitrophenoxy)-3-trichloromethylquinoxaline]",EC50,[1],0.392 ± 0.034 µM
same,CC50 at 72 h,[2],32 ± 6.1 µM
same,In vitro comet assay: DNA strand breaks or alkali labile sites (genotoxicity),"[3]; HepG2, 3.2 and 16 µM, short (2 h) or long (72 h) exposition",not genotoxic; also recorded: did not induce DNA strand breaks or alkali labile sites
same,In vitro comet assay result,"[3]; HepG2, 2 h, 3.2 µM",negative
same,In vitro comet assay result,"[3]; HepG2, 2 h, 16 µM",negative
same,In vitro comet assay result,"[3]; HepG2, 72 h, 3.2 µM",negative
same,In vitro comet assay result,"[3]; HepG2, 72 h, 16 µM",negative
